Results published in US8980906B2, “Pyridonemorphinan analogs and biological activity on opioid receptors” (Purdue Pharma L.P., priority 2012, dated 2015).

Key:
μ-opioid receptor [1] = molecular target: T1, μ-opioid receptor (Homo sapiens (Human), UniProt P35372); experiment: μ-opioid receptor radioligand dose-displacement binding assay ([3H]-diprenorphine); details: binding affinity, [3H]-diprenorphine displacement; read-out: Ki (nM) Opioid Receptor μ
Experimental: μ-Opioid Receptor Binding Assay Procedures: Radioligand dose-displacement binding assays for μ-opioid receptors used 0.3 nM [^3H]-diprenorphine (Perkin Elmer, Shelton, Conn.), with […] membrane protein/well in a final volume of 500 μl binding buffer (10 mM MgCl2, 1 mM EDTA, 5% DMSO, 50 mM HEPES, pH 7.4). Reactions were carried out in the absence or presence of increasing concentrations of unlabeled naloxone. All reactions were conducted in 96-deep well polypropylene plates for 2 hours at room temperature. Binding reactions were terminated by rapid filtration onto 96-well Unifilter GF/C filter plates (Perkin Elmer, Shelton, Conn.), presoaked in 0.5% polyethylenimine using a 96-well tissue harvester (Perkin Elmer, Shelton, Conn.) followed by performing three filtration washes with 500 μl of ice-cold binding buffer. Filter plates were subsequently dried at 50° C. for 2-3 hours. BetaScint scintillation cocktail (Perkin Elmer, Shelton, Conn.) was added (50 μl/well), and plates were counted using a Packard Top-Count for 1 min/well. The data were analyzed using the one-site competition curve fitting functions in GraphPad PRISM™ v. 3.0 or higher (San Diego, Calif.), or an in-house function for one-site competition curve-fitting.

κ-opioid receptor [2] = molecular target: T2, κ-opioid receptor (Homo sapiens (Human), UniProt P41145); experiment: κ-opioid receptor radioligand dose-displacement binding assay ([3H]-U69,593); details: binding affinity, [3H]-U69,593 displacement
Outline: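 Competition binding with 0.4 nM [3H]-U69,593 and 15 μg membrane protein from HEK 293 cells expressing recombinant human κ receptor, in 50 mM Tris pH 7.4 with 5% DMSO, 1 h at about 25 °C. Nonspecific binding defined with 10 μM naloxone or U69,593; bound ligand collected by GF/C filtration and scintillation counting.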

δ-opioid receptor = δ-opioid receptor (Homo sapiens (Human), UniProt P41143); experiment: δ-opioid receptor radioligand dose-displacement binding assay ([3H]-Naltrindole); details: binding affinity, [3H]-Naltrindole displacement
Chain of δ-opioid receptor (P41143 whole entry, looked up): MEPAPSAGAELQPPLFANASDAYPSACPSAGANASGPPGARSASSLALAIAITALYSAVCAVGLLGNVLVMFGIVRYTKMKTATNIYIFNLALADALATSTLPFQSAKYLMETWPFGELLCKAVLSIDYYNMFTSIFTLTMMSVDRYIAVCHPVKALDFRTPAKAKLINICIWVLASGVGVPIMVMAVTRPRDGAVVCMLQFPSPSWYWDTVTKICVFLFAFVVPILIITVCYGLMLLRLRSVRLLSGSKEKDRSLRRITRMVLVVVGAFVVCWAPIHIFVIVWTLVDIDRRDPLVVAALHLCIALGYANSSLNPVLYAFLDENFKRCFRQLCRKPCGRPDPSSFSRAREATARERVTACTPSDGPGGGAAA
Experimental: δ-Opioid Receptor Binding Assay Procedures: δ-Opioid Receptor Binding Assay Procedures were conducted as follows. Radioligand dose-displacement assays used 0.2 nM [^3H]-Naltrindole (Perkin Elmer, Shelton, Conn.; 33.0 Ci/mmole) with 5 μg membrane protein (Perkin Elmer, Shelton, Conn.) in a final volume of 500 μl binding buffer (5 mM MgCl2, 5% DMSO, 50 mM Trizma base, pH 7.4). Non-specific binding was determined in the presence of 25 μM unlabeled naloxone. All reactions were performed in 96-deep well polypropylene plates for 1 hour at a temperature of about 25° C. Binding reactions were terminated by rapid filtration onto 96-well Unifilter GF/C filter plates (Perkin Elmer, Shelton, Conn.) presoaked in 0.5% polyethylenimine (Sigma). Harvesting was performed using a 96-well tissue harvester (Perkin Elmer, Shelton, Conn.) followed by five filtration washes with 500 μl ice-cold binding buffer. Filter plates were subsequently dried at 50° C. for 1-2 hours. Fifty μl/well scintillation cocktail (Perkin Elmer, Shelton, Conn.) was added and plates were counted in a Packard Top-Count for 1 min/well.

μ-opioid receptor [3] = molecular target: T1, μ-opioid receptor; experiment: μ-opioid receptor [35S]GTPγS functional assay, HEK-293 or CHO cells; assay type: biochemical; details: for Emax: relative to DAMGO, HEK-293 or CHO cells
κ-opioid receptor [4] = molecular target: T2, κ-opioid receptor; experiment: κ-opioid receptor [35S]GTPγS functional assay, HEK-293 or CHO cells; assay type: biochemical; details: for Emax: relative to U69,593, HEK-293 or CHO cells
ORL-1 receptor = ORL-1 receptor (Homo sapiens (Human), UniProt P41146); experiment: ORL-1 receptor radioligand binding assay ([3H]-nociceptin); details: binding affinity, [3H]-nociceptin displacement
Experimental: ORL-1 Receptor Binding Assay Procedure: Membranes from recombinant HEK-293 cells expressing the human opioid receptor-like receptor (ORL-1) (Perkin Elmer, Shelton, Conn.) were prepared by lysing cells in ice-cold hypotonic buffer (2.5 mM MgCl2, 50 mM HEPES, pH 7.4) (10 ml/10 cm dish) followed by homogenization with a tissue grinder/Teflon pestle. Membranes were collected by centrifugation at 30,000×g for […] at 4° C. and pellets resuspended in hypotonic buffer to a final concentration of 1-3 mg/ml. Protein concentrations were determined using the BioRad protein assay reagent with bovine serum albumen as standard. Aliquots of the ORL-1 receptor membranes were stored at −80° C.
Radioligand binding assays (screening and dose-displacement) used 0.1 nM [^3H]-nociceptin (Perkin Elmer, Shelton, Conn.; 87.7 Ci/mmole) with 12 μg membrane protein in a final volume of 500 μl binding buffer (10 mM MgCl2, 1 mM EDTA, 5% DMSO, 50 mM HEPES, pH 7.4). Non-specific binding was determined in the presence of […] unlabeled nociceptin (American Peptide Company). All reactions were performed in 96-deep well polypropylene plates for 1 h at room temperature. Binding reactions were terminated by rapid filtration onto 96-well Unifilter GF/C filter plates (Perkin Elmer, Shelton, Conn.) presoaked in 0.5% polyethylenimine (Sigma). Harvesting was performed using a 96-well tissue harvester (Perkin Elmer, Shelton, Conn.) followed by three filtration washes with 500 μl ice-cold binding buffer. Filter plates were subsequently dried at 50° C. for 2-3 hours. Fifty μl/well scintillation cocktail (Perkin Elmer, Shelton, Conn.) was added and plates were counted in a Packard Top-Count for 1 min/well. The data from screening and dose-displacement experiments were analyzed using Microsoft Excel and the curve fitting functions in GraphPad PRISM™, v. 3.0 or higher, respectively, or an in-house function for one-site competition curve-fitting.

For COC(=O)c1cc2c([nH]c1=O)C[C@]13CCN(CC4CC4)[C@H](Cc4ccc(OC)cc41)[C@@H]3C2 [Compound 3, (6R,6aR,12aS)-methyl 15-(cyclopropylmethyl)-2-methoxy-10-oxo-6,6a,7,10,11,12-hexahydro-5H-6,12a-(epiminoethano)naphtho[2,1-g]quinoline-9-carboxylate], which Ki (μ-opioid receptor [1]) is on record?
The Ki was 449 ± 171 nM.

And the Ki (κ-opioid receptor [2])?
Its Ki is 3.85 ± 1.09 nM.

What about the Ki (δ-opioid receptor) of the same compound?
The Ki was 18.9 ± 7.84 nM.

What about the EC50 (μ-opioid receptor [3]) of the same compound?
Its EC50 is 34.9 ± 6.84 nM.

What about the Emax (μ-opioid receptor [3]) of the same compound?
The Emax was 15.7 ± 3.48%.

What about the EC50 (κ-opioid receptor [4]) of the same compound?
Its EC50 is 39.1 ± 2.6 nM.

What about the Emax (κ-opioid receptor [4]) of the same compound?
Its Emax is 52.3 ± 1.76%.

Which Ki (ORL-1 receptor) does the source give for NC(=O)CNC(=O)c1cc2c([nH]c1=O)C[C@]13CCN(CC4CC4)[C@H](Cc4ccc(O)cc41)[C@@H]3C2 [Compound 21, (6R,6aR,12aS)—N-(2-amino-2-oxoethyl)-15-(cyclopropylmethyl)-2-hydroxy-10-oxo-6,6a,7,10,11,12-hexahydro-5H-6,12a-(epiminoethano)naphtho[2,1-g]quinoline-9-carboxamide] here?
The Ki was 2.04 ± 0.49 nM.

What about the Ki (μ-opioid receptor [1]) of the same compound?
Its Ki is 0.59 ± 0.15 nM.

What about the EC50 (μ-opioid receptor [3]) of the same compound?
The EC50 was 1.73 ± 0.41 nM.

What about the Emax (μ-opioid receptor [3]) of the same compound?
Its Emax is 23.7 ± 2.19%.

What about the EC50 (κ-opioid receptor [4]) of the same compound?
Its EC50 is 4.19 ± 0.79 nM.

What about the Emax (κ-opioid receptor [4]) of the same compound?
The Emax was 41 ± 5.29%.

How did the Ki (ORL-1 receptor) turn out when C[C@H](NC(=O)c1cc2c([nH]c1=O)C[C@]13CCN(CC4CC4)[C@H](Cc4ccc(O)cc41)[C@@H]3C2)C(N)=O [Compound 22, (6R,6aR,12aS)—N—((S)-1-amino-1-oxopropan-2-yl)-15-(cyclopropylmethyl)-2-hydroxy-10-oxo-6,6a,7,10,11,12-hexahydro-5H-6,12a-(epiminoethano)naphtho[2,1-g]quinoline-9-carboxamide] was run?
The Ki was 1.2 ± 0.21 nM.

And the Ki (μ-opioid receptor [1])?
Its Ki is 0.56 ± 0.11 nM.

What about the EC50 (μ-opioid receptor [3]) of the same compound?
The EC50 was 4.22 ± 1 nM.

And the Emax (μ-opioid receptor [3])?
The Emax was 30 ± 3.21%.

And the EC50 (κ-opioid receptor [4])?
The EC50 was 9.89 ± 2.4 nM.

What about the Emax (κ-opioid receptor [4]) of the same compound?
Its Emax is 36.7 ± 2.73%.
